Test results reported in patent US8962263B2, “Methods and compositions for detecting the activation state of multiple proteins in single cells” (The Board of Trustees of the Leland Stanford Junior …, priority 2001, dated 2015).

Key:
LFA-1 = molecular target: T1, LFA-1 (Mus musculus, UniProt P24063); settings: oral; cited from earlier work
T1 construct: host or cells: mouse, in vivo

NK leukemic cell line YT = settings: cited from earlier work
NIH3T3 = assay: staurosporine induced apoptosis in ICAM-2 transduced NIH3T3 (annexin-V binding, BrdU TUNEL); type: cell-based, murine; settings: for effect on ICAM-2 anti-apoptotic effect, other kinase inhibitors: cell type not stated, data not shown
Procedure: A) Pharmacological inhibitors of PI3K abrogate ICAM-2's anti-apoptotic. ICAM-2, or vector transduced BaF3, cells were treated with staurosporine (1, μM) with (unfilled) or without (filled) the addition of 100, nM wortmannin for 24, hours (left bar graph). Apoptosis was determined by nuclear staining and fluorescence microscopy (left bar graph) and by annexin-V binding assay (right bar graph). The proportion of apoptotic cells in each culture without staurosporine was 8%+/−2. The percentage of apoptotic cells is expressed as the mean (bar)+SD of triplicate cultures. ICAM-2, 1CAM2-AC, or vector transduced NIH3T3, were treated with staurosporine ([…]) in the presence or absence of 10, μM LY294002, for 24, hours (right bar graph). DMSO vehicle served as negative control. The percentage of apoptotic cells is expressed as the mean (bar)+/−SD of triplicate cultures. B) Confocal images of PI3K and AKT localization in ICAM-2, (top) or vector control cells (bottom). C) Confocal images of ezrin and the p85, subunit of PI3K (green) localization in ICAM-2, (top) or vector control cells (bottom).
A) The anti-apoptotic effect of ICAM-2, is both wortmannin and LY294002, sensitive. ICAM-2, or vector transduced BaF3, cells were treated with staurosporine (1, μM) with (unfilled) or without (filled) the addition of 100, nM wortmannin for 24 hours. Apoptosis was determined by nuclear staining and fluorescence microscopy (left bar graph) and by annexin-V binding assay (right bar graph). The proportion of apoptotic cells in each culture without staurosporine was 8%±2. The percentage of apoptotic cells is expressed as the mean (bar)±SD of triplicate cultures. ICAM-2, ICAM2-ΔC, or vector transduced NIH3T3, were treated with staurosporine (1, μM) in the presence or absence of 10, μM LY294002, for 24, hours. DMSO vehicle served as negative control. The percentage of apoptotic cells is expressed as the mean (bar)±SD of triplicate cultures. B) ICAM-2, expressing NIH3T3, cells are sensitive to apoptosis in the presence of PI3K inhibitor LY294002. BrdU TUNEL assay was performed in staurosporine (1, μM) or LY294002, (10, μM) treated ICAM-2, ICAM2-ΔC, and control vector transduced NIH3T3, cells. The percentage of apoptotic cells is expressed as the mean (bar)±SD of triplicate cultures.
Apoptosis was determined either by counting pyknotic nuclei, annexin-V binding by flow cytometry, or TUNEL BrdU staining by flow cytometry as indicated. Apoptosis was induced either by staurosporine (1 μm), treatment with anti-mouse Fas (5 μq/ml Santa Cruz Biotechnology (SCB), […] Fas (5 μg/ml Jo2 Biomed) or anti-human Fas (10 ng/ml CH11 Kamiya Biomedical) as indicated in appropriate experiment, IL-3 withdrawal-(24 hrs) or as indicated. For pyknolic nuclei count, NIH3T3 cells were grown on glass coverslips and assayed for apoptosis. Suspension cells were analyzed by nuclear staining with 25 μM acridine orange/25 μm ethidium bromide or 5 μg/ml Hoechst 33342 (Molecular Probes, Eugene, Oreg.). Apoptosis was identified by the presence of characteristic pyknotic nuclei as described (Jacobson and Raff, 1995). At least 5 individual fields were photographed and counted using a Zeiss axioscope fluorescence microscope. For the survival assay 10^6 NIH3T3 cells were plated in 10 cm dishes and incubated overnight at 37° C. The cells were treated with 1 μM staurosporine for 24 hours. The cells were washed and cultured for 24 hours in complete medium. The cells were trypsinized and viable cells counted following trypan blue staining. Untreated cells were counted at the time of treatment. % survival represents (number of viable cells post-treatment)/(number of viable cells pretreatment). FACS based annexin-V-FITC/PI staining was done as described (PharMingen). TUNEL assay was performed as described by manufacturer of Apoptosis BrdU kit (Promega). […]

CD56+CD8+ cells = assay: flow cytometric conjugate formation assay of CD56+CD8+ cells and HL60 cells; type: cell-based, human; settings: chemicals 10 μM 30 min prior to ICAM-2 10 μg/ml 30 min
Procedure: A) Conjugate formation of CFSE labeled HL60, cells and CD56^+, CD8^+, cells. Conjugate flow cytometric based assay was performed on PBMC treated with indicated chemicals (10, μM, 30, min) prior to treatment with ICAM-2, (10, μg/ml, 30, min). CFSE labeled HL60, cells were incubated at 25:1, E:T ratio for 5, min, and fixed with 1% paraformaldehyde. Cells were then immunolabeled with CD8 and CD56, antibodies, gated for CD8^+, CD56^+, cell populations and percent HL60, fluorescence was made relative to total HL60, cells. B) IL-2, activated PBMC were either treated with ICAM-2, (10 μg/ml, 30, min) or mock-treated (IgG) and stained for active-LFA-1, (mAb24-Alexa633), phospho-p44/42-Ax488, CD8-CY5PE, and CD56-PE.
Target cell lysis was measured by flow cytoemtric based detection of CFSE labeled HL60 cells. HL60 cells were labeled with 1 μg of CFSE (30 min, 37° C.). […] Percent specific lysis was calculated by the following equation: % specific lysis=100-100×(experimental HL60 count/total control HL60 count). HL60 counts were detectable by the CFSE fluorescence. Percent perforin was calculated by the following equation: % perforin=100×[(experimental perforin MFI−isotype mAb MFI)/(total perforin MFI−isotype mAb MFI)]. […] Cell conjugates were determined by flow cytometry as described (Morgan et al., 2001). […]

PLCg1 = assay: sICAM-2 induced PLCg1 phosphorylation (chemical genetic approach); type: cell-based; settings: sICAM-2 stimulus
Text: (§1) A chemical genetic approach was undertaken to determine the hierarchy of PKC, Pyk2, PLCg1, and Syk activities in response to sICAM-2, stimulus by verifying phosphorylation status of each kinase in the presence of respective chemical inhibitors. Inhibition of PKC with BIM II abrogated phosphorylation of Pyk2, PLCg1, and Syk. Inhibition of PLCg1, by neomycin abrogated phosphorylation of Syk, with no inhibition observed for Pyk2. […] Thus, the upstream signaling events from LFA-1, to Raf-1, appear to involve PKC/Pyk2/PLCg1/Syk. […] We are currently pursuing these complexes in a separate study.

Syk [1] = assay: sICAM-2 induced Syk phosphorylation (phospho-tyrosine based ELISA, chemical genetic approach); type: cell-based; settings: sICAM-2 stimulus
Text: (§2) E) depicts that LFA-1, induced phosphorylation of Pyk2, and Syk is dependent on PKC. We screened for the inhibition of sICAM-2, induced Pyk2, and Syk phosphorylation by chemical inhibitors to tyrosine kinases using a phospho-tyrosine based ELISA. Pyk2, phosphorylation was abrogated in the presence of PKC inhibitors bisindolymaleimide II (BIM II) and staurosporine (STP), in addition to tyrphostin A9, a specific Pyk2, inhibitor. a Pyk2, phosphorylation was also affected by inhibitors of phospholipase Cg (neomycin), inhibitors of Syk (piceatannol), and PKC inhibitor BIM I. Syk phosphorylation was completely abolished by inhibition of Pyk2, PLCg1, and strongly affected by PKC inhibitors. Thus, both Pyk2, and Syk phosphorylations were dependent on PKC activity, while Syk phosphorylation was additionally dependent on PLCg1, and Pyk2, activity. It was not possible to assess specific PKC isozymes by this method.
A chemical genetic approach was undertaken to determine the hierarchy of PKC, Pyk2, PLCg1, and Syk activities in response to sICAM-2, stimulus by verifying phosphorylation status of each kinase in the presence of respective chemical inhibitors. Inhibition of PKC with BIM II abrogated phosphorylation of Pyk2, PLCg1, and Syk. Inhibition of PLCg1, by neomycin abrogated phosphorylation of Syk, with no inhibition observed for Pyk2. […]

ezrin = assay: phosphotyrosine-protein based elisa for ezrin tyrosine phosphorylation upon ICAM-2 ligation; type: cell-based, human; settings: Jurkat cells
Procedure: A) Expression levels of ICAM-2, vary across cell lines of different origins. Quantitative flow cytometry analysis was performed to assess the number of ICAM-2 surface molecules across transformed and untransformed fibroblasts, lymphocytes of T-cell and different B-cell differentiation states and myeloid lineages (see Material and Methods for elaboration). The number of surface molecules/cell is expressed as the mean (bar)+/−SD of triplicate experiments. B) Crosslinking of endogenous ICAM-2, induces ezrin tyrosine phosphorylation and enhanced ICAM-2, interaction. Jurkat cells were crosslinked for ICAM-2 using monoclonal antibody for the indicated times and subjected to immunoprecipitation/immunoblotting as indicated. C) Inhibition of ezrin phosphotyrosine by chemical inhibitors of src and Rho-dependent kinases. D) Ezrin phosphorylation and enhanced interaction with the p85, subunit of PI3K as a function of ICAM-2. Determined as described above. E) PDK-1, activity as a function of ICAM-2, ligation, as described above). F) PI3K and AKT localize to the membrane as a function of ICAM-2, ligation. Membrane/cytosolic fractionation was performed on ICAM-2, ligated Jurkat cells as a function of time and subjected to immunoblotting for PI3K and AKT.
In order to identify upstream kineses capable of tyrosine phosphorylating ezrin as a function of ICAM-2 ligation, we developed a phosphotyrosine-protein based elisa to screen for the inhibition of ezrin tyrosine phosphorylation in vivo by various known inhibitors of protein kineses (Perez and Nolan, manuscript in preparation). […] Given the design of the screen to detect tyrosine residue phosphorylation, we speculate that activation of Rho-dependent processes may be a prerequisite for ezrin to be tyrosine phosphorylated by src (elaborated below).

Pyk2 = assay: sICAM-2 induced Pyk2 phosphorylation (phospho-tyrosine based ELISA, chemical genetic approach); type: cell-based; settings: for sICAM-2 induced Pyk2 phosphorylation: phospho-tyrosine based ELISA
Text: as §2, §1

Syk [2] = settings: cited from earlier work
Raf and p44/42 MAPK = assay: phospho-raf and phospho-p44/42 immunoblot kinase inhibitor screen after ICAM-2 stimulus; type: cell-based, human; settings: compound 10 μM 30 min, then ICAM-2 10 μg/ml 30 min
Procedure: Serum starved cells were treated with 10, μM of indicated compound 30, minutes prior to being ICAM-2, crosslinked for 30, minutes (10, μg/ml) and assessed for phosphorylated Raf and p44/42, MAPK using phospho specific antibodies in standard immunoblot procedures. Control IgG dissolved in 0.1% DMSO served as negative control. Blots are representative of triplicate experiments. […] Co-immunoprecipitation experiments were performed immunoprecipitating αL and β2, integrin and immunoblotting for the presence of SYK and PYK as a function of a stimulus for 30, minutes as indicated (antibodies used at 10, μg/ml, compounds used at 1, μM and control 19, served as negative control).
A) Phospho-raf and phospho-p44/42, immunoblot inhibition profile by tyrosine kinase inhibitors. […] Cell lysates were immunoblotted for phospho-raf and phospho-p44/42. […] Phospho-specificity was determined by phospho-PykpY402, and phospho-syk (Tyr525/526) antibodies. […] Cells were treated and processed as above. Phospho-specific PKCα/βII, (Thr638) and the following antibodies were used; Pyk2, and Syk were first immunoprecipated, probed with anti-phosphotyrosine antibody (PY20), stripped and subsequently probed with indicated non-phospho specific antibody. Immunoblots are representative of triplicate experiments. […]

T1 sequence (P24063 24-1162): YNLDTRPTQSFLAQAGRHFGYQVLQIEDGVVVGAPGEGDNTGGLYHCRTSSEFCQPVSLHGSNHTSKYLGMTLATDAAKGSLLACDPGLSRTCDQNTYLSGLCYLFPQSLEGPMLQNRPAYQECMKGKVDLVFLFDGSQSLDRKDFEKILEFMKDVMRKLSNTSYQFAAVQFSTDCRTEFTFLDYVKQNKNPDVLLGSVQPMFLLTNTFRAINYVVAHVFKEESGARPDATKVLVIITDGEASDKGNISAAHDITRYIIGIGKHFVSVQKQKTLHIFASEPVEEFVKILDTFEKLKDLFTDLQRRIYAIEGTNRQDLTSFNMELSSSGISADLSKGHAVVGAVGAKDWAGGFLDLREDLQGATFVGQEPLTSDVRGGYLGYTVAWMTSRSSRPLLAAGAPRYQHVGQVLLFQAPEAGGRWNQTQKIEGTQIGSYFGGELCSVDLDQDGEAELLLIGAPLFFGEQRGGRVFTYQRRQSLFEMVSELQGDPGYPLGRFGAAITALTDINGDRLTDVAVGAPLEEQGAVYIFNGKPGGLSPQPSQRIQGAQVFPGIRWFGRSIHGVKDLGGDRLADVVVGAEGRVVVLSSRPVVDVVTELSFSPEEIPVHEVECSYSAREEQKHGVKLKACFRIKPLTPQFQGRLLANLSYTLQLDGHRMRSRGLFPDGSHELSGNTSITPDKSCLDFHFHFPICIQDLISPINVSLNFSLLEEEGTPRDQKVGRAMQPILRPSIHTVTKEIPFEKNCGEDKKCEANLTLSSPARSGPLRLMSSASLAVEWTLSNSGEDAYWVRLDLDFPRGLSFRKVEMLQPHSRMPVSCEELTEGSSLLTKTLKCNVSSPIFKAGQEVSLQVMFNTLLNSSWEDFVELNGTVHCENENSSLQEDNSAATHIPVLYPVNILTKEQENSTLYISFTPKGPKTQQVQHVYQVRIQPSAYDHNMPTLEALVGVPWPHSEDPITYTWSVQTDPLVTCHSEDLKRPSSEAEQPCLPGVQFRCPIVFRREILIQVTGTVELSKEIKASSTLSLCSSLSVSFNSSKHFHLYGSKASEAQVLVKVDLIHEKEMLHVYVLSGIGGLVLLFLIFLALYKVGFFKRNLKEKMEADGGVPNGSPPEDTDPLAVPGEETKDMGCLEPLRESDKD
T1 sequence (P11835 24-771 partner): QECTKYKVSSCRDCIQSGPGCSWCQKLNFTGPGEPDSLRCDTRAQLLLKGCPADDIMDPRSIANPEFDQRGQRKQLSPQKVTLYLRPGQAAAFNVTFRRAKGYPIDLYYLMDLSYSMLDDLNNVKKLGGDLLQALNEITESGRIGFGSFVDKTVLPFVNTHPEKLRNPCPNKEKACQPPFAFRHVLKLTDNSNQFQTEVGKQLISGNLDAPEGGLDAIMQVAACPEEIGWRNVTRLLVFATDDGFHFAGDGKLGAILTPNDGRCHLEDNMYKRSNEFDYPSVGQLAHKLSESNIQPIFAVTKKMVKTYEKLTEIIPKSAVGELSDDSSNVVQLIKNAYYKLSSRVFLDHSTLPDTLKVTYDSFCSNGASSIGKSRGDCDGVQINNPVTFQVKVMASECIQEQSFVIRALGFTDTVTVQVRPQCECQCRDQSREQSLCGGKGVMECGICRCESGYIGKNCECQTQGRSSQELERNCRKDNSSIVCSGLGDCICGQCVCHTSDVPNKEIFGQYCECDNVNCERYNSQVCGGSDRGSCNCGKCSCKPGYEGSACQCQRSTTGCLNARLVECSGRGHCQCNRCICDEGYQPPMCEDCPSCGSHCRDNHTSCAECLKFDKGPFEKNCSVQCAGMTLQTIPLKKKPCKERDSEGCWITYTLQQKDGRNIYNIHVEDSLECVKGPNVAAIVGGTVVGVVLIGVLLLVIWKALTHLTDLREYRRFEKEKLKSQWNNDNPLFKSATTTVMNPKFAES

CC[C@H](C)C(=O)O[C@H]1C[C@@H](C)C=C2C=C[C@H](C)[C@H](CC[C@H]3C[C@@H](O)CC(=O)N3Cc3ccc4c(CO)c(OC)ccc4c3)[C@H]21 [LFA703]
inflammatory response (LFA-1): suppressed the inflammatory response

COc1cccc(-c2cc(=O)c3ccccc3o2)c1N [PD98059]
perforin redistribution (NK leukemic cell line YT): inhibits perforin redistribution to the site of effector-target cell contact
effect on ICAM-2 anti-apoptotic effect, other kinase inhibitors (NIH3T3): not abrogated
effector-target (E:T) conjugate formation (CD56+CD8+ cells): did not

CN1CCCC1CCn1cc(C2=C(c3c[nH]c4ccccc34)C(=O)NC2=O)c2ccccc21 (centres unmarked) [bisindolymaleimide II]
phosphorylation of PLCg1 (PLCg1): abrogated
phosphorylation of Syk (Syk [1]): abrogated
tyrosine phosphorylation of ezrin (ezrin): minor affects
phosphorylation of Pyk2 (Pyk2; chemical genetic approach, sICAM-2 stimulus): abrogated
sICAM-2 induced Pyk2 phosphorylation (Pyk2): abrogated
ICAM-2 induced survival signal (NIH3T3; PKC isozyme inhibitors, system not specified): did not abrogate
effect on ICAM-2 anti-apoptotic effect, other kinase inhibitors (NIH3T3): not abrogated

Oc1cc(O)cc(/C=C/c2ccc(O)c(O)c2)c1 [piceatannol]
natural cytotoxicity (Syk [2]): inhibits natural cytotoxicity

CC(C)(C)c1cc(C=C(C#N)C#N)cc(C(C)(C)C)c1O [tyrphostin A9]
effect on ICAM-2 induced activation of Raf and p44/42 MAPK (Raf and p44/42 MAPK): abrogated
sICAM-2 induced Pyk2 phosphorylation (Pyk2): abrogated
